Measured values published in EP3390549B1, “FORMULATIONS CONTAINING A SOLID SOLVENT” (Merck Patent GmbH, priority 2015, dated 2017).

Assay: Solubility limit of the solid (second) organic solvent in the liquid (first) organic solvent
Assay type: physicochemical
Details: dissolved at 40°C, stability on standing up to a week at 25°C
Source text: The differences between the Hansen Solubility parameter Hd, Hp and Hh of the first and the second solvent can be realized individually or collectively. In a very preferred embodiment, at least two and more preferred all the differences between the Hansen Solubility parameter Hd, Hp and Hh of the first and the second solvent are commonly realized.

[1] = in liquid solvent 3-Phenoxy toluene

Solubility limit [1] [%]	Solubility limit (in liquid solvent α-Pinene oxide) [%]	Solubility limit (in liquid solvent β-Caryophyllene) [%]	Structure (SMILES)
55	60	35	C=C1CC[C@H]2O[C@]2(C)CC[C@@H]2[C@@H]1CC2(C)C [Caryophyllene oxide]
>70			O=C1CCCCCCCCCCCCCCO1 [ω-Pentadecalactone]
